This note sets out measurements from PubChem BioAssay AID194 (DTP/NCI, 2004).

The subject of this test is BDF1 mice, B16 melanoma s.c., survival/tumor T/C. The test can be described thus: NCI In Vivo Anticancer Drug Screen. Data for tumor model B16 Melanoma (subcutaneous) in B6D2F1 (BDF1) mice. On the procedure: The antitumor activity of compounds was measured in mice bearing transplantable tumors. Survival or tumor size were measured and the results are expressed as the measurement made in the treated group (T) divided by the measurement made in the vehicle treated control group (C). The tumor model used in this assay is B16 Melanoma (subcutaneous) in B6D2F1 (BDF1) mice

Where [1] appears, read: endpoint: median survival time, dose: 0.2 mg/kg/injection, schedule: Q01DX009 (ip), vehicle: saline, higher = longer survival.
Setting [2] is: endpoint: median survival time, dose: 0.4 mg/kg/injection, schedule: Q01DX009 (ip), vehicle: saline, higher = longer survival.
Setting [3] is: endpoint: median survival time, dose: 0.5 mg/kg/injection, schedule: Q01DX009 (ip), vehicle: saline, higher = longer survival.
[4] abbreviates: endpoint: median survival time, dose: 0.8 mg/kg/injection, schedule: Q01DX009 (ip), vehicle: saline, higher = longer survival.
Where [5] appears, read: endpoint: median survival time, dose: 1.0 mg/kg/injection, schedule: Q01DX009 (ip), vehicle: saline, higher = longer survival.
Setting [6] is: endpoint: median survival time, dose: 1.6 mg/kg/injection, schedule: Q01DX009 (ip), vehicle: saline, higher = longer survival.
[7] abbreviates: endpoint: median survival time, dose: 8.0 mg/kg/injection, schedule: Q01DX009 (ip), vehicle: saline, higher = longer survival.
Where [8] appears, read: endpoint: median survival time, dose: 50.0 mg/kg/injection, schedule: Q01DX009 (ip), vehicle: Klucel (hydroxypropylcellulose) (HPC), higher = longer survival.

SMILES strings stand for the structures. Where “and” joins values, the source holds several entries; their conditions need not be identical. Equal entries are not always repeated. Records with an inconclusive call do not appear.

`Nc1ncn(C2OC(CO)C(O)C2O)c(=O)n1` (configuration not stated): the T/C reads like this: under setting [1], 100 % of control; under setting [2], 104 % of control; under setting [3], 87 % of control; (endpoint: median survival time, dose: 0.75 mg/kg/injection, schedule: Q01DX009 (ip), vehicle: Klucel (hydroxypropylcellulose) (HPC), higher = longer survival) 111 % of control; under setting [4], 123 % of control; under setting [5], 105 % of control. In addition, the T/C under setting [6] was 106 % of control; the T/C (endpoint: median survival time, dose: 3.2 mg/kg/injection, schedule: Q01DX009 (ip), vehicle: saline, higher = longer survival) is 114 % of control and 116 % of control; the T/C (endpoint: median tumor weight (est.), dose: 0.75 mg/kg/injection, schedule: Q01DX009 (ip), vehicle: saline, higher = larger tumour) was 87 % of control and 96 % of control; the T/C (endpoint: median tumor weight (est.), dose: 1.5 mg/kg/injection, schedule: Q01DX009 (ip), vehicle: saline, higher = larger tumour) is 41 % of control and 48 % of control; the T/C (endpoint: median tumor weight (est.), dose: 3.0 mg/kg/injection, schedule: Q01DX009 (ip), vehicle: saline, higher = larger tumour) was 52 % of control and 57 % of control; the T/C (endpoint: median tumor weight (est.), dose: 6.0 mg/kg/injection, schedule: Q01DX009 (ip), vehicle: saline, higher = larger tumour) was 21 % of control and 26 % of control.
For the molecule `COc1ccc(C[C@H](N)C(=O)NC2C(CO)OC(n3cnc4c(N(C)C)ncnc43)C2O)cc1` (some centres not stated), the T/C is 151 % of control under setting [7]; 96 % of control (endpoint: median survival time, dose: 16.0 mg/kg/injection, schedule: Q01DX009 (ip), vehicle: saline, higher = longer survival); 107 % of control (endpoint: median survival time, dose: 32.0 mg/kg/injection, schedule: Q01DX009 (ip), vehicle: saline, higher = longer survival).
On to `O=C1CSC(=S)N1c1ccco1`, for which the T/C was 111 % of control under setting [8] and 118 % of control (endpoint: median survival time, dose: 400.0 mg/kg/injection, schedule: Q01DX009 (ip), vehicle: Klucel (hydroxypropylcellulose) (HPC), higher = longer survival).
Turning to `CC1CCC(NC(=O)N(CCCl)N=O)CC1` (configuration not stated), the T/C was 113 % of control (endpoint: median survival time, dose: 2.0 mg/kg/injection, schedule: Q02DX009 (ip), vehicle: Klucel (hydroxypropylcellulose) (HPC), higher = longer survival); 123 % of control (endpoint: median survival time, dose: 2.5 mg/kg/injection, schedule: Q04DX003 (ip), vehicle: other, higher = longer survival); 87 % of control (endpoint: median survival time, dose: 4.0 mg/kg/injection, schedule: Q01DX001 (ip), vehicle: saline with Tween-80, higher = longer survival); 104 % of control (endpoint: median survival time, dose: 5.0 mg/kg/injection, schedule: Q04DX003 (ip), vehicle: other, higher = longer survival); 87 % of control and 120 % of control (endpoint: median survival time, dose: 8.0 mg/kg/injection, schedule: Q01DX001 (ip), vehicle: saline with Tween-80, higher = longer survival); 189 % of control (endpoint: median survival time, dose: 8.0 mg/kg/injection, schedule: Q02DX009 (ip), vehicle: Klucel (hydroxypropylcellulose) (HPC), higher = longer survival). In addition, the T/C (endpoint: median survival time, dose: 8.0 mg/kg/injection, schedule: Q04DX003 (ip), vehicle: saline with Tween-80, higher = longer survival) is 106 % of control; the T/C (endpoint: median survival time, dose: 10.0 mg/kg/injection, schedule: Q01DX001 (ip), vehicle: other, higher = longer survival) was 111 % of control; the T/C (endpoint: median survival time, dose: 12.0 mg/kg/injection, schedule: Q04DX003 (ip), vehicle: saline with Tween-80, higher = longer survival) was 101 % of control; the T/C (endpoint: median survival time, dose: 16.0 mg/kg/injection, schedule: Q01DX001 (ip), vehicle: saline with Tween-80, higher = longer survival) is 124 % of control; the T/C (endpoint: median survival time, dose: 16.0 mg/kg/injection, schedule: Q02DX009 (ip), vehicle: Klucel (hydroxypropylcellulose) (HPC), higher = longer survival) was 109 % of control; the T/C (endpoint: median survival time, dose: 18.0 mg/kg/injection, schedule: Q01DX001 (ip), vehicle: saline with Tween-80, higher = longer survival) is 120 % of control. Further, the T/C (endpoint: median survival time, dose: 18.0 mg/kg/injection, schedule: Q04DX003 (ip), vehicle: saline with Tween-80, higher = longer survival) was 192 % of control; the T/C (endpoint: median survival time, dose: 20.0 mg/kg/injection, schedule: Q01DX001 (ip), vehicle: other, higher = longer survival) is 192 % of control; the T/C (endpoint: median survival time, dose: 20.0 mg/kg/injection, schedule: Q04DX003 (ip), vehicle: other, higher = longer survival) is 223 % of control and 256 % of control; the T/C (endpoint: median survival time, dose: 32.0 mg/kg/injection, schedule: Q01DX001 (ip), vehicle: saline with Tween-80, higher = longer survival) is 157 % of control; the T/C (endpoint: median survival time, dose: 36.0 mg/kg/injection, schedule: Q01DX001 (ip), vehicle: saline with Tween-80, higher = longer survival) was 213 % of control; the T/C (endpoint: median tumor weight (est.), dose: 15.0 mg/kg/injection, schedule: Q01DX001 (ip), vehicle: Klucel (hydroxypropylcellulose) (HPC), higher = larger tumour) is 50 % of control and 72 % of control. The T/C runs as follows: (endpoint: median tumor weight (est.), dose: 30.0 mg/kg/injection, schedule: Q01DX001 (ip), vehicle: Klucel (hydroxypropylcellulose) (HPC), higher = larger tumour) 68 % of control; (endpoint: median tumor weight (est.), dose: 60.0 mg/kg/injection, schedule: Q01DX001 (ip), vehicle: Klucel (hydroxypropylcellulose) (HPC), higher = larger tumour) 45 % of control.
For `O=NN(CCCl)C(=O)NCCCl`, the T/C under setting [3] was 100 % of control; the T/C under setting [5] is 106 % of control; the T/C (endpoint: median survival time, dose: 1.5 mg/kg/injection, schedule: Q02DX009 (ip), vehicle: saline + alcohol, higher = longer survival) is 151 % of control; the T/C (endpoint: median survival time, dose: 2.0 mg/kg/injection, schedule: Q01DX009 (ip), vehicle: saline, higher = longer survival) was 117 % of control; the T/C (endpoint: median survival time, dose: 3.11 mg/kg/injection, schedule: Q01DX007 (ip), vehicle: Klucel (hydroxypropylcellulose) (HPC), higher = longer survival) is 117 % of control; the T/C (endpoint: median survival time, dose: 4.0 mg/kg/injection, schedule: Q01DX009 (ip), vehicle: saline, higher = longer survival) was 184 % of control. The T/C was 167 % of control under setting [7] and 121 % of control (endpoint: median survival time, dose: 14.4 mg/kg/injection, schedule: Q01DX007 (ip), vehicle: Klucel (hydroxypropylcellulose) (HPC), higher = longer survival).
Regarding `COc1cc2c(c(OC)c1OC)-c1ccc(OC)c(=O)cc1[C@@H](NC(C)=O)CC2`, the T/C is 95 % of control (endpoint: median survival time, dose: 63.0 micrograms/kg/injection, schedule: Q01DX009 (ip), vehicle: saline, higher = longer survival); 116 % of control (endpoint: median survival time, dose: 125.0 micrograms/kg/injection, schedule: Q01DX009 (ip), vehicle: saline, higher = longer survival); 105 % of control (endpoint: median survival time, dose: 250.0 micrograms/kg/injection, schedule: Q01DX009 (ip), vehicle: saline, higher = longer survival); 103 % of control (endpoint: median survival time, dose: 500.0 micrograms/kg/injection, schedule: Q01DX009 (ip), vehicle: saline, higher = longer survival).
Take `Nc1ccc(N=Nc2ccccc2)c(N)c1`: the T/C runs as follows: under setting [8], 91 % of control; (endpoint: median survival time, dose: 100.0 mg/kg/injection, schedule: Q01DX009 (ip), vehicle: Klucel (hydroxypropylcellulose) (HPC), higher = longer survival) 106 % of control.
On to `COC(=O)[C@@]12OC[C@]34[C@H]([C@@H](O)[C@@H]1O)[C@@]1(C)CC(=O)C(O)=C(C)[C@@H]1C[C@H]3OC(=O)[C@H](OC(=O)/C=C(\C)C(C)C)[C@@H]24`, for which the T/C is 109 % of control (endpoint: median survival time, dose: 0.25 mg/kg/injection, schedule: Q01DX009 (ip), vehicle: saline with Tween-80, higher = longer survival); 96 % of control (endpoint: median survival time, dose: 0.5 mg/kg/injection, schedule: Q01DX009 (ip), vehicle: saline with Tween-80, higher = longer survival); 103 % of control (endpoint: median survival time, dose: 1.0 mg/kg/injection, schedule: Q01DX009 (ip), vehicle: saline with Tween-80, higher = longer survival); 121 % of control (endpoint: median survival time, dose: 1.1 mg/kg/injection, schedule: Q01DX009 (ip), vehicle: saline with Tween-80, higher = longer survival); 116 % of control (endpoint: median survival time, dose: 1.3 mg/kg/injection, schedule: Q04DX003 (ip), vehicle: saline with Tween-80, higher = longer survival); 103 % of control (endpoint: median survival time, dose: 2.0 mg/kg/injection, schedule: Q01DX001 (ip), vehicle: saline with Tween-80, higher = longer survival). Moreover, the T/C (endpoint: median survival time, dose: 2.0 mg/kg/injection, schedule: Q04DX003 (ip), vehicle: saline with Tween-80, higher = longer survival) was 112 % of control.
Consider `N=[N+]=CC(=O)CCC(NC(=O)C(CCC(=O)C=[N+]=N)NC(=O)CCC(N)C(=O)O)C(=O)O` (configuration not stated), for which the T/C was 95 % of control (endpoint: median survival time, dose: 0.1 mg/kg/injection, schedule: Q01DX009 (ip), vehicle: saline, higher = longer survival); 95 % of control under setting [1]; 94 % of control under setting [2]; 91 % of control under setting [4]; 98 % of control under setting [6]; 113 % of control (endpoint: median survival time, dose: 12.5 micrograms/kg/injection, schedule: Q01DX009 (ip), vehicle: saline, higher = longer survival). Besides, the T/C was 117 % of control (endpoint: median survival time, dose: 25.0 micrograms/kg/injection, schedule: Q01DX009 (ip), vehicle: saline, higher = longer survival); 97 % of control (endpoint: median survival time, dose: 50.0 micrograms/kg/injection, schedule: Q01DX009 (ip), vehicle: saline, higher = longer survival); 102 % of control (endpoint: median survival time, dose: 100.0 micrograms/kg/injection, schedule: Q01DX009 (ip), vehicle: saline, higher = longer survival); 86 % of control (endpoint: median tumor weight (est.), dose: 0.2 mg/kg/injection, schedule: Q01DX009 (ip), vehicle: saline, higher = larger tumour).
Consider `CC/C(=C(/CC)c1ccc(O)cc1)c1ccc(O)cc1`, for which the T/C is 93 % of control (endpoint: median survival time, dose: 6.0 mg/kg/injection, schedule: Q01DX009 (ip), vehicle: Klucel (hydroxypropylcellulose) (HPC), higher = longer survival); 100 % of control (endpoint: median survival time, dose: 12.0 mg/kg/injection, schedule: Q01DX009 (ip), vehicle: Klucel (hydroxypropylcellulose) (HPC), higher = longer survival); 106 % of control (endpoint: median survival time, dose: 24.0 mg/kg/injection, schedule: Q01DX009 (ip), vehicle: Klucel (hydroxypropylcellulose) (HPC), higher = longer survival); 97 % of control (endpoint: median survival time, dose: 48.0 mg/kg/injection, schedule: Q01DX009 (ip), vehicle: Klucel (hydroxypropylcellulose) (HPC), higher = longer survival).
